Assay results as given in publication PMC8280112, “Substrate reduction therapy for Krabbe disease and metachromatic leukodystrophy using a novel ceramide galactosyltransferase inhibitor” (Scientific Reports, 2021).
Where two headings read alike, the source gives them in different places.

Key:
UGT1A = molecular target: T1, UGT1A (Homo sapiens, UniProt P22309); assay: UDP glucuronosyltransferase assay (Eurofins Panlabs); assay type: biochemical
T1 construct: purchased Eurofins Panlabs Taiwan, Ltd. ITEM 196000
T1 sequence (P22309 26-533): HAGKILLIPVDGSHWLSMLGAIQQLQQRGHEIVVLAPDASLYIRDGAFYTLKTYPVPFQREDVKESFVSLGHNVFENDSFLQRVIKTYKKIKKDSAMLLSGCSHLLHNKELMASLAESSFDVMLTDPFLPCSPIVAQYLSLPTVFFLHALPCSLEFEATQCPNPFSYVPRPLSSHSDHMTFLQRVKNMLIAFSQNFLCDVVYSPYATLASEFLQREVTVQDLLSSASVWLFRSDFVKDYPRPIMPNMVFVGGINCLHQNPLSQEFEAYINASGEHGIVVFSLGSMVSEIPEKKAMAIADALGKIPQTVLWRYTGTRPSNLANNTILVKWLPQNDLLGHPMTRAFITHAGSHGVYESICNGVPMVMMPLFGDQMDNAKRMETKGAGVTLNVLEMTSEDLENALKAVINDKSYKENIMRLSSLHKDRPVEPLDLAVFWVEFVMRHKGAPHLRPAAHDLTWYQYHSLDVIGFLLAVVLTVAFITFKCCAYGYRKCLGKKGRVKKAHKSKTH
Procedure: UGT1A activity was evaluated at Eurofins Panlabs Taiwan, Ltd. ITEM 196000.

CB1 receptor = molecular target: T2, CB1 receptor (Homo sapiens, UniProt P21554); assay: CB1R activity (Eurofin Cerep); assay type: cell-based
T2 construct: purchased Eurofin Cerep ITEM G012
T2 sequence (P21554 whole entry): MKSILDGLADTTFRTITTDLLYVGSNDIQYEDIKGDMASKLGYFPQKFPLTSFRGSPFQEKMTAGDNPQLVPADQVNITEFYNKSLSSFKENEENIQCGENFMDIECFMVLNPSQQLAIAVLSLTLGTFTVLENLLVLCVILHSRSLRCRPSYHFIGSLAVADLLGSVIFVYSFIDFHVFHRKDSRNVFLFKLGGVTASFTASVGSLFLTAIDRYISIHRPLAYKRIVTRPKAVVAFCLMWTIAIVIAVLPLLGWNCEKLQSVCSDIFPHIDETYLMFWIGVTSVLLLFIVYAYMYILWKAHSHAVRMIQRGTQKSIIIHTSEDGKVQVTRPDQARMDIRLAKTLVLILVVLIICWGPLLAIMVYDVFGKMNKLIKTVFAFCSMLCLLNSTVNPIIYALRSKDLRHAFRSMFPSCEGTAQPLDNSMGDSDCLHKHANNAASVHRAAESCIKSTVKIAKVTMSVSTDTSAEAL
Procedure: CB1R activity was evaluated at Eurofin Cerep, Le Bois l'Evêque, France ITEM […].

rhARSA = molecular target: T3, rhARSA (Homo sapiens, UniProt P15289); assay: Arylsulfatase A assay; assay type: biochemical; details: read-out: ARSA IC50
T3 construct: purchased R&D systems
T3 sequence (P15289 19-507): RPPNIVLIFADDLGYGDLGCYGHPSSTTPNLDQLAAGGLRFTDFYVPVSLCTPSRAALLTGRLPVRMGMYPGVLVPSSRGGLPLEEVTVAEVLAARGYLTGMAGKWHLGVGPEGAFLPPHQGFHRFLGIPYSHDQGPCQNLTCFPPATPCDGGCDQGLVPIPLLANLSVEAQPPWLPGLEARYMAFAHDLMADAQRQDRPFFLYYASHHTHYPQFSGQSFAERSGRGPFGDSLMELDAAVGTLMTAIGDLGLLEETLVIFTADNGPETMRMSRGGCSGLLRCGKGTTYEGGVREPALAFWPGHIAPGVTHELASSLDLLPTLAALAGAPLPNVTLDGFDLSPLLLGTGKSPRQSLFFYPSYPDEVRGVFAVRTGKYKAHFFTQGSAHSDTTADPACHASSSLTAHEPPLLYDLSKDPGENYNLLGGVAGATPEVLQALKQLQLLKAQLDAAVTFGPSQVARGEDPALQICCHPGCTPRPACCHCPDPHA
Procedure: The ARSA assay was modified from a previously reported method. The reaction mixture contained 40 ng of rhARSA (R&D systems), various concentrations of inhibitor, and 6.2 µM N-octadecanoyl-d3-sulfatide substrate in reaction buffer (0.08 M sodium acetate at pH 4.5, 2.08 g/L sodium taurodeoxycholate, 33 mM MnCl2, 0.4% DMSO) and was incubated for 16 h at 37 °C. The reaction was terminated with equal volume MeOH:ethyl acetate (EA). N-octadecanoyl-d35-psychosine (Matreya) was added as the IS, together with 400 µL EA and 200 µL H2O. After centrifugation, 200 µL of the EA layer was dried under a stream of N2 and resuspended in 100 µL MeOH before quantifying the N-octadecanoyl-d3-galactosylceramide product using a reported UPLC–MS/MS method.

[1] = molecular target: T4, Glucosylceramide synthase (GCS) (Canis lupus familiaris, UniProt A0A8I3MXG6); assay: Glucosylceramide synthase assay; assay type: biochemical; details: MDCK cell lysate
T4 construct: endogenous in cells; host or cells: MDCK cell lysate
T4 sequence (A0A8I3MXG6 1-394): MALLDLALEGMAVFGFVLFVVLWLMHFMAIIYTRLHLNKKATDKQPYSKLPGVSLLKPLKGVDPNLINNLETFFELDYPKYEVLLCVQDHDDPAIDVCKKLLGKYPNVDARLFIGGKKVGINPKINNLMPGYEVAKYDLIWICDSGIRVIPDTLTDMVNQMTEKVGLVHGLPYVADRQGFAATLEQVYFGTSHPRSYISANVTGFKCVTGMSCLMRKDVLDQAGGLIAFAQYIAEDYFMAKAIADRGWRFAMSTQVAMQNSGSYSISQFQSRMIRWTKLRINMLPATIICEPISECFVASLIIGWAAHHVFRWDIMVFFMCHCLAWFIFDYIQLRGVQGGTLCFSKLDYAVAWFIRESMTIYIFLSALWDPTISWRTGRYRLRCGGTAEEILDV
Procedure: Modified from Larsen et al.[46]. Briefly, 60 μg of MDCK cell lysate was incubated with […] in 100 mM Tris buffer (pH 7.5), 10 mM MgCl2, 1 mM dithiothreitol, 1 mM EGTA, 2 mM NAD, 100 μM UDP-glucose, 10 μM C6-NBD-Ceramide (Matreya), 35 μM DOPC, and 5 μM sulfatide (Sigma) at 37 °C for 1 h. The reaction was stopped with equal volume of acetonitrile and 50 μL was added to 100 μL of acetonitrile containing 100 ng/mL tolbutamide IS and centrifuged. Next, 70 μL of supernatant was mixed with 140 μL H2O before LC-MS analysis. NBD-Glucosylceramide quantification was performed on a Shimadzu ultra-fast liquid chromatography system (Shimadzu) coupled with an API 4000 triple quadrupole mass spectrometer in ESI positive mode (Applied Biosystems) and a Xbridge BEH130 CI 8, 100 mm × 4.6 mm i.d, 3.5 μm column (Waters). The mobile phase consisted of water and acetonitrile supplemented with 0.1% formic acid (v/v).

## C[C@H]1N(c2ccc(Br)cc2)C(=O)N(c2ccc(Br)cc2)C1(O)c1cccc(OC(F)(F)F)c1 (stereo partly shown) [S202]
UGT1A
  IC50: > 30 µM
CB1 receptor; S202 relative to S221
  potency as a CB1 inverse agonist, change through optimization of S221: reduced tenfold
CB1 receptor; antagonist mode, read-out: CB1R antagonist IC50
  IC50: 2.9 µM
CB1 receptor; inverse agonist mode, read-out: CB1R inverse agonist IC50
  IC50: 2.1 µM
CB1 receptor; read-out: CB1 receptor IC50
  IC50: 3 µM
rhARSA
  IC50: > 50 µM
[1]
  IC50: > 50 µM
